# System: rabbit skeletal myofibrils (fast skeletal myofibrils)
# Assay: Activation of fast skeletal myofibrils (PUMA assay, PK/LDH-coupled ATPase at pCa25)
# Format: biochemical
# Conditions: AC1.4 determined according to the procedure of Example 39; reported as class symbols
# Method in brief: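 ATPase activity of Triton-washed rabbit skeletal myofibrils, roughly 90% fast fibres, tracked by NADH loss at 340 nm through a PK/LDH-coupled ADP-regenerating system. Calcium set to 25% of maximal activity (pCa25), in PIPES 12 mM pH 6.8 with 2 mM MgCl2 and 1 mM DTT; AC1.4 reported.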
row,Structure (SMILES),Mean AC1.4
1,"CC(C)(CNc1ccc(-c2cccc(C(N)=O)c2)nn1)c1ccc(F)cc1F [3-(6-{[2-(2,4-difluorophenyl)-2-methylpropyl]amino}pyridazin-3-yl)benzamide]",B (B=1-10 uM)
2,NC(=O)c1cccc(-c2ccc(NCC3(c4cccc(C(N)=O)n4)CCC3)nn2)c1,D (D=>20 uM)
3,CC(C)(CNc1ccc(C(N)=O)nn1)c1ccc(F)cc1 [6-{[2-(4-fluorophenyl)-2-methylpropyl]amino}pyridazine-3-carboxamide],C (C=10-20 uM)
4,CC(Nc1ccc(-c2cccc(C(N)=O)c2)nn1)c1ccc(F)cc1 (stereo not shown),C (C=10-20 uM)
5,Cc1ccc(CCNc2ccc(-c3cccc(C(N)=O)c3)nn2)cc1,C (C=10-20 uM)
6,COc1ccnc(C2(CNc3ccc(-c4ccc5cn[nH]c5c4)nn3)CCC2)c1 [(6-(1H-indazol-6-yl)pyridazin-3-yl){[(4-methoxy(2-pyridyl))cyclobutyl]methyl}amine],A (A=<1 uM)
7,N#Cc1ccnc(C2(CNc3ccc(-c4ccc5[nH]ncc5c4)nn3)CCC2)c1,A (A=<1 uM)
8,NC(=O)c1cccc(-c2ccc(NCC3(c4cc(C(N)=O)ccn4)CCC3)nn2)c1,D (D=>20 uM)
9,CC(C)(C)OC(=O)N(CC(C)(C)c1ncccc1F)c1ccc(-c2ccc3[nH]c(O)nc3c2)nn1 [(tert-butoxy)-N-[2-(3-fluoro(2-pyridyl))-2-methylpropyl]-N-[6-(2-hydroxybenzimidazol-5-yl)pyridazin-3-yl]carboxamide],D (D=>20 uM)
10,CC(C)(CNc1ccc(-c2ccc(N)nc2)nn1)c1ccc(F)cc1 [[6-(6-amino(3-pyridyl))pyridazin-3-yl][2-(4-fluorophenyl)-2-methylpropyl]amine],A (A=<1 uM)
11,"CC(C)(CNc1ccc(-c2cccc(C(N)=O)c2)nn1)c1ncc(F)cc1F [3-(6-{[2-(3,5-difluoro(2-pyridyl))-2-methylpropyl]amino}pyridazin-3-yl)benzamide]",B (B=1-10 uM)
12,O=c1[nH]c2ccc(-c3ccc(NCC4(c5ncccc5F)CCC4)nn3)cc2[nH]1,B (B=1-10 uM)
13,CC(C)(CNc1ccc(-c2ccnc(N)c2)nn1)c1ccc(F)cc1 [[6-(2-amino(4-pyridyl))pyridazin-3-yl][2-(4-fluorophenyl)-2-methylpropyl]amine],B (B=1-10 uM)
14,N=C(N)Nc1cccc(-c2ccc(NCC3(c4ncccc4F)CCC3)nn2)c1,B (B=1-10 uM)
15,N#Cc1ccc(C2(CNc3ccc(-c4ccc5[nH]ncc5c4)nn3)CCC2)nc1,B (B=1-10 uM)
16,CC(C)(CNc1ccc(-c2cncnc2)nn1)c1ccccc1Cl [[2-(2-chlorophenyl)-2-methylpropyl](6-pyrimidin-5-ylpyridazin-3-yl)amine],B (B=1-10 uM)
17,CC(C)(CNc1ccc(-c2ccccc2Cl)nn1)c1ccc(F)cc1 [[6-(2-chlorophenyl)pyridazin-3-yl][2-(4-fluorophenyl)-2-methylpropyl]amine],A (A=<1 uM)
18,N#Cc1cccc(-c2ccc(NCCc3ccc(Cl)cc3Cl)nn2)c1,D (D=>20 uM)
19,NC(=O)c1cccc(-c2ccc(NCCc3ccncc3)nn2)c1 [3-{6-[(2-(4-pyridyl)ethyl)amino]pyridazin-3-yl}benzamide],D (D=>20 uM)
20,CC(C)(CNc1ccc(-c2cc[nH]n2)nn1)c1ccc(F)cc1 [[2-(4-fluorophenyl)-2-methylpropyl](6-pyrazol-3-ylpyridazin-3-yl)amine],B (B=1-10 uM)
21,"CC(C)(CNc1ccc(-c2ccc3[nH]nc(NCC(F)(F)F)c3c2)nn1)c1ccc(F)cc1 [[2-(4-fluorophenyl)-2-methylpropyl](6-{3-[(2,2,2-trifluoroethyl)amino](1H-indazol-5-yl)}pyridazin-3-yl)amine]",A (A=<1 uM)

# Same assay, conditions: median AC1.4 class, procedure of Example 39
row,Structure (SMILES),Mean AC1.4
1,NC(=O)c1cccc(-c2ccc(NC3(c4ccccc4F)CCC3)nn2)c1,A (A=<1 uM)
2,N#Cc1ccc(C2(Nc3ccc(-c4cccc(C(N)=O)c4)nn3)CCC2)cc1,D (D=>20 uM)
3,NC(=O)c1cc(-c2ccc(NCC3(c4ncccc4F)CCC3)nn2)no1,A (A=<1 uM)
4,"OCc1cnc(-c2ccc(NCC3(c4ncccc4F)CCC3)nn2)s1 [{2-[6-({[(3-fluoro-2-pyridyl)cyclobutyl]methyl}ami-no)pyridazin-3-yl]-1,3-thiazol-5-yl}methan-1-ol]",B (B=1-10 uM)
5,NC(=O)c1cccc(-c2ccc(NCC3(c4ncccc4F)CC(F)(F)C3)nn2)c1,B (B=1-10 uM)
6,COC(=O)Nc1ncc(-c2ccc(NCC3(c4ncccc4F)CCC3)nn2)cn1,D (D=>20 uM)
7,NC(=O)Nc1ccc(-c2ccc(NCC3(c4ncccc4F)CCC3)nn2)cc1,A (A=<1 uM)
8,"O=C(NCC1CCCO1)c1cnc(-c2ccc(NCC3(c4ncccc4F)CCC3)nn2)s1 (stereo not shown) [{2-[6-({[(3-fluoro(2-pyridyl))cyclobutyl]methyl}ami-no)pyridazin-3-yl](1,3-thiazol-5-yl)}-N-(oxolan-2-ylmethyl)carboxamide]",B (B=1-10 uM)
9,Fc1cccnc1C1(Nc2ccc(-c3ccc4nc[nH]c4c3)nn2)CCC1 [(6-benzimidazol-6-ylpyridazin-3-yl)[(3-fluoro(2-pyridyl))cyclobutyl]amine],B (B=1-10 uM)
10,NCc1ccc(-c2ccc(NCC3(c4ncccc4F)CCC3)nn2)cc1 [{6-[4-(aminomethyl)phenyl]pyridazin-3-yl}{[(3-fluoro(2-pyridyl))cyclobutyl]methyl}amine],B (B=1-10 uM)
11,NC(=O)Nc1ncc(-c2ccc(NCC3(c4ncccc4F)CCC3)nn2)cn1,D (D=>20 uM)
12,Fc1cccnc1C1(CNc2ccc(-c3cnc(N4CCNCC4)nc3)nn2)CCC1 [{[(3-fluoro(2-pyridyl))cyclobutyl]methyl}[6-(2-piperazinylpyrimidin-5-yl)pyridazin-3-yl]amine],D (D=>20 uM)
13,"NC(=O)c1cccc(-c2ccc(NCC(F)(F)c3ccccn3)nn2)c1 [3-{6-[(2,2-difluoro-2-(2-pyridyl)ethyl)amino]pyridazin-3-yl}benzamide]",D (D=>20 uM)
14,Fc1cccnc1C1(CNc2ccc(C3CNC3)nn2)CCC1 [(6-azetidin-3-ylpyridazin-3-yl){[(3-fluoro(2-pyridyl))cyclobutyl]methyl}amine],D (D=>20 uM)

# Same assay, conditions: median AC1.4 reported as class; procedure of Example 39
row,Structure (SMILES),Mean AC1.4
1,N#Cc1nc[nH]c1NC(=O)c1ccc(NCC2(c3ncccc3F)CCC2)nn1 [N-(4-cyanoimidazol-5-yl)[6-({[(3-fluoro(2-pyridyl))cyclobutyl]methyl}ami-no)pyridazin-3-yl]carboxamide],C (C=10-20 uM)
2,"O=C(O)Cc1cnc(-c2ccc(NC[C@]3(c4ncccc4F)C[C@H](F)C3)nn2)s1 [2-{2-[6-({[3-fluoro-1-(3-fluoro(2-pyridyl))cyclobutyl]methyl}ami-no)pyridazin-3-yl]-1,3-thiazol-5-yl}acetic acid]",B (B=1-10 uM)
3,O=C1NCc2c1cccc2-c1ccc(NC[C@]2(c3ncccc3F)C[C@H](F)C2)nn1 [4-[6-({[3-fluoro-1-(3-fluoro(2-pyridyl))cyclobutyl]methyl}ami-no)pyridazin-3-yl]isoindolin-1-one],B (B=1-10 uM)
4,CCOC(=O)c1nc(NC(=O)c2ccc(NCC3(c4ncccc4F)CCC3)nn2)cn1C [ethyl 4-{[6-({[(3-fluoro(2-pyridyl))cyclobutyl]methyl}ami-no)pyridazin-3-yl]carbonylamino}-1-methylimidazole-2-carboxylate],D (D=>20 uM)
5,Cn1ccc(NC(=O)c2ccc(NCC3(c4ncccc4F)CCC3)nn2)n1 [[6-({[(3-fluoro(2-pyridyl))cyclobutyl]methyl}ami-no)pyridazin-3-yl]-N-(1-methylpyrazol-3-yl)carboxamide],C (C=10-20 uM)
6,NC(=O)Cc1ccc(F)c(-c2ccc(NCC3(c4ncccc4F)CCC3)nn2)c1 [2-{4-fluoro-3-[6-({[(3-fluoro(2-pyridyl))cyclobutyl]methyl}ami-no)pyridazin-3-yl]phenyl}acetamide],B (B=1-10 uM)
7,NC(=O)c1cc(-c2ccc(NCC3(c4ncccc4F)CCC3)nn2)c[nH]c1=O [5-[6-({[(3-fluoro(2-pyridyl))cyclobutyl]methyl}ami-no)pyridazin-3-yl]-2-oxohydropyridine-3-carboxamide],C (C=10-20 uM)
8,"O=c1cc(-c2ccc(NCC3(c4ncccc4F)CCC3)nn2)nc2[nH]ccn12 [7-[6-({[(3-fluoro-2-pyridyl)cyclobutyl]methyl}ami-no)pyridazin-3-yl]-4-hydro-4-imidazolino[1,2-a]pyrimidin-5-one]",B (B=1-10 uM)
9,"NC(=O)C1CCc2sc(-c3ccc(NCC4(c5ncccc5F)CCC4)nn3)nc21 (stereo not shown) [2-[6-({[(3-fluoro-2-pyridyl)cyclobutyl]methyl}ami-no)pyridazin-3-yl]-4,5,6-trihydrocyclopenta[1,2-d]1,3-thiazole-4-carboxamide]",D (D=>20 uM)
10,NC(=O)c1cc(O)cc(-c2ccc(NC[C@]3(c4ncccc4F)C[C@H](F)C3)nn2)c1 [3-[6-({[3-fluoro-1-(3-fluoro(2-pyridyl))cyclobutyl]methyl}ami-no)pyridazin-3-yl]-5-hydroxybenzamide],A (A=<1 uM)
11,N#Cc1cn[nH]c1NC(=O)c1ccc(NCC2(c3ncccc3F)CCC2)nn1 [N-(4-cyanopyrazol-5-yl)[6-({[(3-fluoro(2-pyridyl))cyclobutyl]methyl}ami-no)pyridazin-3-yl]carboxamide],B (B=1-10 uM)
